Experiment [1] concerns YUMM1.7 tumors. Nature of the experiment: Growth of YUMM1.7 tumors in human APOE knock-in mice under LXR-agonistic treatment. The class given is in vivo, mouse. The following applies: RGX-104 in chow, approximate target dose 100 mg/kg body weight, from day 3 post injection. The procedure: To assess the impact of APOE genotype on the growth of syngeneic melanoma, 1×10^5 YUMM1.7 cells were subcutaneously injected into the flank of 6-10-weeks-old, sex-matched human APOE targeted replacement mice. Cells were injected in a total volume of 100 μL, and YUMM1.7 cells were mixed 1:1 with growth factor reduced Matrigel (356231, Corning) before injection. Tumor size was measured on the indicated days using digital calipers, and tumor volume was calculated as (small diameter)^2×(large diameter)×Π/6. In experiments employing YUMMER1.7 cells, 5×10^5 cells resuspended in PBS were injected subcutaneously into the flank. For LXR-agonistic treatment, mice were administered chow supplemented with the synthetic LXR-agonist RGX-104 (Rgenix (Tavazoie, M., et al. (2018) Cell, 172 (4), 825-840)) at 628.5 mg/kg chow (Research Diets, approximate target dose of 100 mg/kg body weight) starting on day 3 post injection. For anti-PD1 treatment, mice were injected intraperitoneally with 250 μg and 125 μg of anti-PD-1 antibody (BioXCell, clone RMP1-14) on days 6 and 9 post tumor cell injection, respectively. Control mice received PBS injections on the same days. For survival analysis in the YUMMER1.7 model, mice were euthanized when the tumor volume exceeded 1000 mm^3. Therapy responses were considered complete (CR, complete response) when tumor volumes fell below 16 mm^3 (lowest limit of detection).

The subject of experiment [2] is solid cancers. Nature of the experiment: RGX-104 in patients with solid cancers, radiographic tumor response by ApoE genotype. The class given is in vivo, human. The following applies: monotherapy or combination with docetaxel, nivolumab or ipilimumab. The procedure: RGX-104 was administered to patients with solid cancers as a monotherapy or in combination with either docetaxel, nivolumab, or ipilimumab. Fifty-one patients were evaluable for both radiographic assessment of tumor response and ApoE genotype. Below is a table showing the number of patients with each genotype and the number of clinical responses (Partial Responses) to the therapy.

The mark [3] stands for this setting: ApoE genotype E2/E3 (10 patients).
Setting [4] is: ApoE genotype E2/E4 (3 patients).
Setting [5] is: ApoE genotype E3/E3 (30 patients).
Setting [6] is: ApoE genotype E3/E4 (8 patients).

Molecules are shown by their SMILES.

On to `C[C@H](CCOc1cccc(CC(=O)O)c1)N(Cc1cccc(C(F)(F)F)c1Cl)CC(c1ccccc1)c1ccccc1` [RGX-104, 2-[3-[(3R)-3-[[2-chloro-3-(trifluoromethyl)phenyl]methyl-(2,2-diphenylethyl)amino]butoxy]phenyl]acetic acid], for which the “efficacy of LXR agonism (tumor growth)” value is recorded as “completely abrogated” in experiment [1] (APOE2 mice) and “robust anti-tumor effects” in experiment [1] (APOE4 mice). Moreover, the “Number of Partial Responses” value in experiment [2] (setting [3]) came out at 0; in experiment [2] (setting [4]), 1; in experiment [2] (setting [5]), 1; in experiment [2] (setting [6]), 1. Further, the “Percent of patients with a Partial Response” value in experiment [2] (setting [3]) stood at 0%; in experiment [2] (setting [4]), 33.3%; in experiment [2] (setting [5]), 3.3%; in experiment [2] (setting [6]), 12.5%.
